In patent US10561618B2, “Orally available pharmaceutical formulation suitable for improved management of movement disorders” (Contera Pharma ApS, priority 2012, dated 2020):
Values belong to the molecule of their own block, whether it stands above or below them.

Assays:
[1] = Pharmacokinetic profiling of the fixed dose combination product; type: in vivo; details: cynomolgus monkeys, oral; for Time of maximum plasma concentration: one buspirone (IR)/zolmitriptan (CR) 10 mg/1 mg tablet (batch 0614/2012), n=4
Text: Four non-naïve male cynomolgus monkeys (3.5 to 7 kg; Hainan Jingang Laboratory Animal Co. Ltd.) were used to evaluate the pharmacokinetics of the fixed dose combination product of the present invention. Animals were individually housed in stainless-steel mesh cages during in-life in accordance with the National Research Council “Guide for the Care and Use of Laboratory Animals” and fed twice daily with 120 g of Certified Monkey Diet daily (Beijing Vital Keao Feed Co., Ltd. Beijing, P. R. China). At test occasion, animals were fed the day before at 3:30 to 4:00 pm and the remaining food removed after approximately 1 to 1.5 hours of feeding (at 5:00 pm). Food was withheld until 4-hour post-dosage. The study was conducted in compliance with the Animal Welfare Act, the Guide for the Care and Use of Laboratory Animals, and the Office of Laboratory Animal Welfare (OLAW).
Each monkey was dosed one buspirone hydrochloride (IR)/zolmitriptan (CR) 10 mg/1 mg combination product (batch 0614/2012) orally using tablet gun, placing one tablet beyond the root of tongue. Subsequently, the animals' throat was massaged to aid passage of the tablet down the esophagus and 5-10 mL drinking water injected into its mouth using a syringe. After administration of drinking water, the animals' jaw was checked to see if the tablet was swallowed.
Blood samples were draw from a peripheral vessel from restrained, non-sedated animals at the following time points: pre-dose, 15, 30, 60 min, 2, 4, 8, 12 and 24 h post-dose into (K2) EDTA-coated tubes. Plasma was obtained from the blood samples by centrifugation (3,000×g for 10 minutes at 2 to 8° C.) within one hour of collection and stored frozen in a freezer at −70° C. until bio-analysis.
Analytes were extracted from plasma by mixing 200 μL 0.1% formic acid (FA) in 50% acetonitrile (ACN)/methanol (MeOH) containing 100 ng/mL Labetalol as internal standard with 50 μL plasma sample, followed by centrifugation (4000 rpm for 20 min).
Subsequently, 100 μL of supernatant was removed and mixed with 150 μL 0.1% FA in 25% MeOH/Water, vortexed 10 min and centrifuged for 10 min at 4000 rpm. Chromatographic separation from other constituents of the sample was achieved by ultra-performance liquid chromatography (Acquity, Waters), followed by tandem mass spectrometry (MS/MS) detection (API 4000, AB Sciex Instruments), injecting 20 μL sample. The analytes were separated by an ACE 5 phenyl (2.1×100 mm ID) column maintained at 40° C., using a gradient of A: 10 mM ammonium acetate in water and solvent B: 0.1% FA in 95% ACN)/water (table 4).
Buspirone, zolmitriptan and labetalol were detected at parent/daughter molecular mass of 386.10/122.20, 288.10/58.20 and 329.20/161.90 m/z, and a collision energy of 41, 25 and 50 eV, respectively. Retention times were 2.3, 1.3 and 2.0 min for buspirone, zolmitriptan and labetalol, respectively. Peak areas correlated linearly (r^2>0.997, 1/x^2 weighting) with buspirone and zolmitriptan concentrations in the range 0.5-1000 ng/mL. Lower limit of quantification (LLOQ) was 0.5 ng/mL for buspirone and zolmitriptan based on a signal-to-noise ratio>10:1.
The PK analysis was performed with non-linear mixed effects modelling using Phoenix NMLE 1.2 (Pharsight Corporation). A one- or two-compartment model with first-order absorption and elimination rate was fitted to the time-concentration profiles. Furthermore, model development included modelling of the data with an absorption lag-time (Tlag). To adequately characterise a potential lag-time, the plasma concentrations<LLOQ (Lower Limit of Quantification) was fixed to ½ of LLOQ (0.25 ng/mL) for the sample just prior to the first quantifiable concentration. Best model fit was evaluated based on basic goodness-of-fit plots, parameter precision, visual predictive check and objective function value. A drop in objective function value of […] for nested models with one added parameter was considered a significant improvement in model fit.

[2] = test system: unilaterally 6-OHDA-lesioned rats; details: zolmitriptan administered alone; WO2012/048710; cited from earlier work
LID = details: cited from earlier work
[3] = test system: unilaterally 6-OHDA-lesioned rats; assay: 6-OHDA rat model: L-DOPA induced AIMs and drugs screening test; type: in vivo; details: for L-DOPA induced AIMs: Example II, 30 min before test
Parkinson's disease = details: cited from earlier work
[4] = batch 0614/2012, non-linear mixed effects modelling
[5] = batch 0614/2012, non-linear mixed effects modelling, value (% CV)
[6] = Example VI, buspirone 0.25 or 0.5 mg/kg s.c., tandospirone 1 or 2 mg/kg i.p., 25 min before test

Time plasma concentration is sustained above limit of quantification ([1]; batch 0614/2012, LLOQ 0.5 ng/mL): 12 h | Absorption rate, slower compared to buspirone ([1]; batch 0614/2012, model): 3 fold | V/F IIV (inter-individual variability) [1, 4]: 0.1% | tvTlag (absorption lag-time) [1, 5]: 0.44 h | tvV/F (volume of central compartment) [1, 5]: 16 (62) L/kg | tvka (absorption rate) [1, 5]: 0.32 (55) h^-1 | tyCL/F (clearance) [1, 5]: 7.0 (11) L/h/kg | tvTlag (absorption lag-time) ([1]; batch 0614/2012, non-linear mixed effects modelling, value (% CV), listed as Zolmitriptan): 0.44 (3.8) h | Time of maximum plasma concentration [1]: 4 h
Compound: CN(C)CCc1c[nH]c2ccc(C[C@H]3COC(=O)N3)cc12 [zolmitriptan, (S)-4-({3-[2-(dimethylamino)ethyl]-1H-indol-5-yl}methyl)-1,3-oxazolidin-2-one]
Inhibition of LID in an animal model for LID [2]: generally fails to inhibit LID

Compound: Fc1ccc(-c2cncc(CNC[C@H]3CCc4ccccc4O3)c2)cc1 [sarizotan, 1-[(2R)-3,4-dihydro-2H-chromen-2-yl]-N-([5-(4-fluorophenyl)pyridin-3-yl]methyl)methanamine]
Effect on LID (LID; phase 2A study and open labeled study): reduced LID | Effect compared to placebo (LID; several large phase 2b studies): no significant effects

Compound: O=C1CC2(CCCC2)CC(=O)N1CCCCN1CCN(c2ncccn2)CC1 [buspirone, 8-[4-(4-pyrimidin-2-ylpiperazin-1-yl)butyl]-8-azaspiro[4.5]decane-7,9-dione]
CL/F IIV (inter-individual variability) [1, 4]: 37% | ka IIV (inter-individual variability) [1, 4]: 5.4% | tvQ/F (inter-compartmental clearance) [1, 5]: 18 (11) L/h/kg | tvTlag (absorption lag-time) [1, 5]: no observable lag-time | tvV2/F (volume of peripheral compartment) [1, 5]: 1259 (29) L/kg | tvV/F (volume of central compartment) [1, 5]: 3.9 (26) L/kg | tvka (absorption rate) [1, 5]: 1.0 (13) h^-1 | tyCL/F (clearance) [1, 5]: 13 (124) L/h/kg | Time of maximum plasma concentration [1]: around 0.5 h | L-DOPA-induced dyskinesia (AIMs) ([3]; Example I, buspirone 0.5 mg/kg i.p. given alone): only partly reduced AIM | L-DOPA-induced dyskinesia (AIMs) [3, 6]: significantly reduced L-DOPA-induced dyskinesia | Effect on Parkinson's disease or dyskinesia (Parkinson's disease; doses 10-60 mg/day): did not have any effects on Parkinson's disease or dyskinesia | Disability ratings (Parkinson's disease; higher doses (100 mg/day)): significant worsening of disability ratings | Effect on dyskinesia (Parkinson's disease; higher doses (100 mg/day)): reduced dyskinesia

Compound: O=C1[C@@H]2[C@@H]3CC[C@@H](C3)[C@@H]2C(=O)N1CCCCN1CCN(c2ncccn2)CC1 [tandospirone, (1R,2R,6S,7S)-4-{4-[4-(pyrimidin-2yl)piperazin-1-yl]butyl}-4-azatricyclo[5.2.1.02,6]decane-3,5-dione]
L-DOPA induced AIMs ([3]; tandospirone 1 mg/kg i.p. alone): partially and briefly reduce AIMs | L-DOPA induced AIMs ([3]; tandospirone 2 mg/kg i.p. alone): partially and briefly reduce AIMs | L-DOPA-induced dyskinesia (AIMs) [3, 6]: significantly reduced L-DOPA-induced dyskinesia
